The molecules below were run on MOLT-4 (assay: cells). Details: Homo sapiens.

Question: With Nc1nc2c(O)nc(N)n(Cc3ccco3)c-2n1 as the molecule, how does the IC50 read?
Answer: 42.5 µM

Question: Which IC50 does the source give for Nc1nc(O)c2nc(N)n(Cc3ccccc3)c2n1 here?
Answer: 0.77 µM

Question: Nc1nc(O)c2ncn(Cc3ccccc3)c2n1 was tested. Which IC50 did it give?
Answer: 35 µM

Question: For Oc1ncn(Cc2ccccc2)c2ncnc1-2, which IC50 is on record?
Answer: 204 µM

Question: Which IC50 does the source give for Nc1nc(O)c2nc(N)n(Cc3cccs3)c2n1 here?
Answer: 0.82 µM

Question: For O=c1[nH]c(=O)n(Cc2ccccc2)c2nc[nH]c12, which IC50 is on record?
Answer: 28.6 µM

Question: With Nc1nc2c(O)nc(N)n(Cc3cccs3)c-2n1 as the molecule, how does the IC50 read?
Answer: > 25 µM

Question: How did the IC50 turn out when Nc1nc(O)c2nc(N)n(Cc3ccco3)c2n1 was run?
Answer: 1.47 µM

These molecules were tested against T1, Purine nucleoside phosphorylase (Homo sapiens) (UniProt P00491) (assay: Inhibitory activity against Purine nucleoside phosphorylase evaluated by radiochemical assay). Details: Urine; concentration not given here.
T1 sequence (whole entry): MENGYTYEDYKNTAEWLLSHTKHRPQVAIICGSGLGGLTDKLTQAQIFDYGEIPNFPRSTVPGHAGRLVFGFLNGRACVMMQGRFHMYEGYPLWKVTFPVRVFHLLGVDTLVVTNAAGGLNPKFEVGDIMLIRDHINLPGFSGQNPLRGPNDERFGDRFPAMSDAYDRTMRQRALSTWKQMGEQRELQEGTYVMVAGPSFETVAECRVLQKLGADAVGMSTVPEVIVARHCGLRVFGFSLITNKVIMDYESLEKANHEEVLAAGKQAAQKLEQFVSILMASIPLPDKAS
Format: tissue-based

Question: With Oc1nc(S)n(Cc2ccccc2)c2ncnc1-2 as the molecule, how does the inhibition read?
Answer: 78.3%

What follows are molecules tested against T1, Purine nucleoside phosphorylase (Homo sapiens) (assay: Inhibitory activity against Purine nucleoside phosphorylase evaluated by radiochemical assay <300 uM). Details: Urine.
Format: tissue-based

Question: Oc1ncn(Cc2ccccc2)c2ncnc1-2 was tested. Which inhibition did it give?
Answer: 81%

These molecules were tested against T2, Purine nucleoside phosphorylase (Homo sapiens, UniProt P00491) (assay: not given). Details: not given.
T2 sequence (P00491 whole entry): T1 sequence (whole entry)

Question: Nc1nc2c(S)ncn(Cc3ccccc3)c-2n1 was tested. Which IC50 did it give?
Answer: 131 µM

Question: For Nc1nc2c(O)nc(N)n(Cc3ccco3)c-2n1, which IC50 is on record?
Answer: 5.2 µM

Question: With Nc1nc(O)c2nc(N)n(Cc3ccccc3)c2n1 as the molecule, how does the IC50 read?
Answer: 0.47 µM

Question: For Nc1nc(O)c2ncn(Cc3ccccc3)c2n1, which IC50 is on record?
Answer: 29.6 µM

Question: With COc1ccc(Cn2c(N)nc(O)c3nc(N)nc2-3)cc1 as the molecule, how does the IC50 read?
Answer: 8.9 µM

Question: How did the IC50 turn out when Oc1ncn(Cc2ccccc2)c2ncnc1-2 was run?
Answer: 112 µM

Question: With O=c1[nH]c(=O)n(Cc2ccccc2)c2nc[nH]c12 as the molecule, how does the IC50 read?
Answer: 13.4 µM

Question: Which IC50 does the source give for Nc1nc2c(O)nc(N)n(Cc3cccs3)c-2n1 here?
Answer: 4.6 µM

Question: CSc1nc(O)c2nc(N)nc-2n1Cc1ccccc1 was tested. Which IC50 did it give?
Answer: > 75 µM

Question: Nc1nc(O)c2nc(NC=O)nc-2n1Cc1ccccc1 was tested. Which IC50 did it give?
Answer: > 150 µM

Question: With Nc1[nH]c[n+](Cc2ccccc2)c2ncnc1-2 as the molecule, how does the IC50 read?
Answer: 95 µM

What follows are molecules tested against T1, Purine nucleoside phosphorylase (Homo sapiens) (assay: Inhibitory activity against Purine nucleoside phosphorylase evaluated by radiochemical assay concentration <300 uM). Details: not given.
Format: tissue-based

Question: For Oc1ncn(CCc2ccccc2)c2ncnc1-2, which inhibition is on record?
Answer: 26.8%

Question: With O=[N+]([O-])c1ccc(Cn2cnc(O)c3ncnc2-3)cc1 as the molecule, how does the inhibition read?
Answer: 13.1%

Question: With CSc1nc(O)c2ncnc-2n1Cc1ccccc1 as the molecule, how does the inhibition read?
Answer: 23.3%

Question: Which inhibition does the source give for N#Cc1ccc(Cn2cnc(O)c3ncnc2-3)cc1 here?
Answer: 22.2%

Question: With Oc1ncn(Cc2ccc(Cl)c(Cl)c2)c2ncnc1-2 as the molecule, how does the inhibition read?
Answer: 36.9%

The molecules below were run against T1, Purine nucleoside phosphorylase (Homo sapiens) (assay: Inhibitory activity against Purine nucleoside phosphorylase evaluated by radiochemical assay at <300 uM). Details: Urine.
Format: tissue-based

Question: With Oc1nc(S)n(CCc2ccccc2)c2ncnc1-2 as the molecule, how does the inhibition read?
Answer: 10.9%

— ChEMBL document CHEMBL1125439, “Inhibitors of human purine nucleoside phosphorylase. Synthesis and biological activities of 8-amino-3-benzylhypoxanthine and related analogues” (J Med Chem, 1992)
